Assay results: PMC5234788 (PLoS ONE, 2017)

How the values were obtained:
Type in all cases: in vivo
male CD-1 ICR mice [1] = experiment: Elevated plus-maze test; conditions: DZP 2 mg/kg, i.p., P < 0.05 vs control
Text: The elevated plus-maze test is widely used for the screening and evaluation of anxiolytic drugs. The apparatus consists of two open arms (30 cm × 5 cm) and two enclosed arms (30 cm × 5 cm × 15 cm), which is elevated 45 cm above the ground. The entire maze was made of clear Plexiglas and illuminated by four 30 W white lights with 300 lx light intensity arranged as a cross 100 cm above the maze. 48 male CD-1 ICR mice were randomly divided into either the vehicle group, one of three doses of l–THBr groups, or the diazepam group. 30 min after injection, mice were gently placed on the center platform facing an open arm, and the number of entries and the time spent in both arms were recorded by a video camera for 5 min. The results were expressed as the percentage of entries into the open arms (%) = (the number of entries into the open arms / the total number of entries into the four arms) × 100%; and the percentage of time spent in the open arms (%) = (time spent in the open arms / total time spent in the four arms) × 100%.
In a separate experiment, WAY100635 (a 5-HT1A antagonist) was used to test whether the anxiolytic-like activity of l-THBr is mediated by the activation of the 5-HT1A receptor. Forty male CD-1 ICR mice were randomly divided into one of four groups: vehicle, WAY100635 (3 mg/kg, i.p.), l–THBr (5 mg/kg, i.p.) or WAY100635 (3 mg/kg, i.p.) + l–THBr (5 mg/kg, i.p.). Mice were administered vehicle or WAY100635 followed by vehicle or l–THBr (5 mg/kg) injections 15 min later. The test was performed 30 min after the administration of l-THBr or vehicle.

male CD-1 ICR mice [2] = experiment: Light-dark box test; conditions: DZP 2 mg/kg, 30 min before test, P < 0.05 vs vehicle
Text: The light-dark box test is a sensitive model to detect activity in disorders related to anxiety, based on the innate aversion of rodents to brightly lit areas and on their spontaneous exploratory behavior in response to a novel environment. The light-dark transition box is a polypropylene animal cage (44 cm × 21 cm × 21 cm), which is divided into two compartments, a light box (illuminated by a 60 W light source with 1000 lx light intensity) and a dark box. Forty-eight male CD-1 ICR mice were placed in the light box 30 min after l–THBr or DZP injection and allowed to move freely to both boxes for 5 min. The number of transitions between the two boxes were recorded by a video camera.

male CD-1 ICR mice [3] = experiment: Locomotor activity test; conditions: DZP 2 mg/kg, i.p., 60 min
Text: The spontaneous activity video analysis system consists of 8 sound-attenuated chambers (40 cm × 40 cm × 65 cm) with a built-in infrared camera. (JL Behave, Shanghai Ji-Liang Software Technology Co., Ltd). During the behavioral tests, the experimenter was outside the testing room, and the chambers were cleaned between successive runs. Forty male CD-1 ICR mice were allowed to acclimate for three days in home cages and were handled for another three days to minimize stress after arrival in the animal facility. On the following day, after habituation to the activity chambers for 60 min, mice were administered vehicle, diazepam (DZP, 2 mg/kg, i.p.) or l–THBr (1, 5, or 10 mg/kg, i.p.) and immediately placed into the test chambers to record their locomotor activity for 60 min.

CN1C(=O)CN=C(c2ccccc2)c2cc(Cl)ccc21 [Diazepam, reference compound]
percentage of entries into the open arms (male CD-1 ICR mice [1]): significant increase | percentage of time spent in the open arms (male CD-1 ICR mice [1]): significant increase | number of transitions between the light/dark sides (male CD-1 ICR mice [2]): increased | influence on locomotor activity (travel distance) (male CD-1 ICR mice [3]): no influence
